Measured values: patent publication US11391739B2, “Compositions and methods for treating multiple myeloma” (DANA-FARBER CANCER INSTITUTE, INC., priority 2014, dated 2022)

Assays:
Type in all cases: cell-based, human
MM1S-luc cells = assay: Transwell migration assay of MM1S-luc cells
Method: For cell migration assays, the top chamber of transwell plates ([…], Corning Costar) was seeded with 2×10^5 MM1S-luc cells, and the bottom chamber was seeded with either medium (0.1% FBS) alone, BMEC-60 cells, BMEC-60 cell-conditioned medium, or plain medium containing CyPA and/or CD147. After 12 hrs of incubation, MM1S-luc cells that had migrated to the bottom chamber were collected and quantified by Xenogen Imaging. Migration of RPMI, U266, CLL, LPL, or primary tumor cells was evaluated by counting the number of unlabeled cells in the lower chamber. Each experiment was done in triplicate and repeated twice. Recombinant HPLC-purified eCyPA was purchased from BioMart Inc. and eCyPB (PPIB) human recombinant protein was purchased from Abnova. In most instances, 50 ng/ml of eCyPA or eCyPB diluted in serum-free RPMI medium was used. CM was collected from confluent cultures of BMEC-60 cells incubated for 48 hours. When needed, the CM was treated with 100 μ/ml proteinase K (19133, Qiagen) for 2 hrs and then deactivated for 15 min at 70° C. Anti-CD147 (UM-8D6) antibody and monoclonal mouse IgG1 (MOPC31C) were obtained from Ancell; anti-CXCR4 (MAB171) was from R&D systems. Migration data were normalized using the data obtained with medium alone. Results are means.±SD for triplicate assays.

H929 and MM1S cells [1] = assay: Proliferation of MM cells ([3H]TdR incorporation)
Method: Cell proliferation was evaluated by [^3H]TdR incorporation as described in Mani et al., Cancer Res. 69: 7577-7586 (2009). When proliferation of MM cells was determined in the presence of HS5 or BMEC-60 cells, the latter were previously gamma-irradiated (10,000 rads) and dispensed into 96-well plates. Then, MM1S and H929 cells were co-cultured with either BMEC-60 cells, CM alone, CyPA, or CyPB for 72 hrs. Viability of MM1s-Luc cells were co-cultured with BMEC-60 cells and then treated with drugs as described was assessed, using the tumor cell-specific in vitro bioluminescence imaging (SS-BLI).

CLL and LPL cells = assay: Transwell migration assay of CLL and LPL cells; conditions: 50 ng/ml recombinant eCyPA
Text: FIG. 16. (FIG. 16A) Representative immunostains (top, n=10) and flow cytometric (bottom, n=6) analysis of CD147 expression in BM samples from CLL patients. (FIG. 16B) Representative immunostains (top, n=10) and flow cytometric (bottom, n=6) analysis of CD147 expression in BM samples from LPL patients. (FIG. 16C) Flow cytometry of CD147 (red line) and control isotype (black line) expression in one CLL cell line (HG3) and one primary tumor patient cells (CLLPT #1). (FIG. 16D) Flow cytometry of CD147 (red line) and control isotype (black line) expression in one LPL cell line (BCWM.1) and one primary tumor patient cells (LPLPT #1). […] Migration of primary CLL and LPL tumor patient cells was evaluated in four different samples for each tumor type. […] Unlabeled cell lines and primary tumors were used, and migration was evaluated by counting cells in the bottom chamber. […]
(§1) For cell migration assays, the top chamber of transwell plates ([…], Corning Costar) was seeded with 2×10^5 MM1S-luc cells, and the bottom chamber was seeded with either medium (0.1% FBS) alone, BMEC-60 cells, BMEC-60 cell-conditioned medium, or plain medium containing CyPA and/or CD147. After 12 hrs of incubation, MM1S-luc cells that had migrated to the bottom chamber were collected and quantified by Xenogen Imaging. […]

H929 and MM1S cells [2] = assay: Immunoblot analysis of total protein extracts from MM cells
Method: Total protein samples were prepared from non-attached H929 and MM1S cells grown in CM from cultures of BMEC-60 or BMEC-1 cells attached for 72 hr. In some experiments, the cells were co-cultured with BMEC-60 cells using transwell chambers (Corning Costar, 0.45 µm pore diameter). Immunoblotting was performed as described in Takada et al., Sci. Transl. Med. 4, 148ra117 (2012). When MM1S and H929 cells were treated with eCyPA or CD147 Ab, they were first incubated with eCyPA or CD147 Ab for 5 hrs in serum-free medium. Then 0.5% serum was added, and incubation was resumed for another 72 hrs before performing protein preparation. Anti-human primary antibodies included: BCL9 (2D4, Abnova), CyPA (ERPR7511, Abcam), CD147 (#13287, Cell Signaling), pSTAT3 (#9131, Cell Signaling), pERK (#4370, Cell Signaling), PARP (#9542, Cell Signaling), pAKT (#9271, Cell Signaling), Active-β-catenin (05-665, Millipore), Factor VIII (A0082, DAKO), MMP-9 (MAB911, R&D), CyPB (MAB5410, R&D), and horseradish peroxidase (HRP)-conjugated actin (C-11, Santa Cruz). Actin Ab was used as a loading control. Secondary antibodies included: anti-rabbit IgG (HRP)-conjugated (W402b, Promega), and anti-mouse IgG (HRP)-conjugated (W401b, Promega). Protein concentrations were measured in triplicate by Bradford assay (BioRad). Optimal antibody concentrations were used according to the manufacturer's recomendations.

[3] = test system: H929, OPM2, RPMI and primary MM cells; assay: Transwell migration assay of other MM cell lines and primary MM cells; conditions: 50 ng/ml recombinant protein
Method: FIG. 12. (FIG. 12A) CyPA immunostains in two different NBM, kidney, liver, and lymph node biopsies from healthy subjects. (FIG. 12B) Serum levels of eCyPA in 10 BM aspirates from MGUS and MM patients. (FIG. 12C) Transwell migration assay of MM1S-luc cells incubated in the absence of serum (Medium) or BM serum from two different MM patients with low (PT #4) and high (PT #12) levels of eCyPA (same as FIG. 4I). Migration data was normalized based on data of medium alone. (FIG. 12D) Transwell migration assay of H929, OPM2 and RPMI cells incubated with medium alone or in the presence of 50 ng/ml of recombinant eCyPA. (FIG. 12E) Transwell migration assay of two MM primary tumors (MMPT #1 and MMPT #2) incubated with medium alone or 50 ng/ml of recombinant eCyPA or BMEC-60 cells.
as §1, with “Imaging. Migration of RPMI, U266, CLL, LPL, or primary tumor cells was evaluated by counting the number of unlabeled cells in the lower chamber.” for “Imaging.”

For “CyPB: eCyPB (PPIB) human recombinant protein purchased from Abnova”, the “migration of MM1S-luc cells, CyPB compared with CyPA” value (MM1S-luc cells; 50 ng/ml each) was “Major differences were likewise not observed” and the “proliferation of MM cells” value (H929 and MM1S cells [1]; tested at much higher concentrations than those in BM serum of MM patients) was “induces proliferation”.

With “eCyPA: Recombinant HPLC-purified eCyPA (extracellular cyclophilin A) purchased from BioMart Inc.” the “migration of CLL cells” value (CLL and LPL cells) was “enhanced migration”, the “migration of LPL cells” value (CLL and LPL cells) was “enhanced migration” and the “concentration giving maximal migration response” value (MM1S-luc cells; MM1S-luc cells) was 50 ng/mL. The “lowest concentration inducing significant migration” value (MM1S-luc cells; MM1S-luc cells) was 6 ng/mL, the “migration of MM cells incubated with BMEC-1 transduced with CyPA-shRNAs” value (MM1S-luc cells; addition of 50 ng/ml recombinant eCyPA) was “restored migration” and the “migration of MM1S-luc cells” value (MM1S-luc cells; purified recombinant protein, time- and concentration-dependent) was “promoted migration”. For the same substance, the “proliferation of H929 and MM1S cells” value (H929 and MM1S cells [1]; concentration-dependent) was “enhanced”, the “signaling pathways (Wnt/β-catenin, STAT3, AKT, ERK) in MM cells” value (H929 and MM1S cells [2]; 50 ng/ml eCyPA vs without) was “activation of several signaling pathways” and the “higher-glycosylated form of CD147 in MM cells” value (H929 and MM1S cells [2]; CyPA-treated) was “increased”. For the same substance, the “expression of matrix metalloprotease 9 (MMP-9)” value (H929 and MM1S cells [2]; cells treated with eCyPA) was “increased”, the “CD147 expression in MM cells” value (H929 and MM1S cells [2]; concentration-dependent and time-dependent) was “dramatically increased” and the “migration of other MM cell lines (H929, OPM2, RPMI)” value [3] was “induced migration”. The “migration of primary MM cells” value [3] was “induced migration”.
